# Measurements reported in US11236086B2, “Substituted pyrrolopyridines as inhibitors of activin receptor-like kinase” (BLUEPRINT MEDICINES CORPORATION, priority 2017, dated 2022).
# Target: T1, ALK2R206H (mutant ALK2, N-terminally tagged with GST) (Homo sapiens, UniProt Q04771, R206H)
# T1 construct: purchased Carna Bioscience or ThermoFisher 09-148 or PV6232
# T1 sequence (Q04771 21-509 R206H): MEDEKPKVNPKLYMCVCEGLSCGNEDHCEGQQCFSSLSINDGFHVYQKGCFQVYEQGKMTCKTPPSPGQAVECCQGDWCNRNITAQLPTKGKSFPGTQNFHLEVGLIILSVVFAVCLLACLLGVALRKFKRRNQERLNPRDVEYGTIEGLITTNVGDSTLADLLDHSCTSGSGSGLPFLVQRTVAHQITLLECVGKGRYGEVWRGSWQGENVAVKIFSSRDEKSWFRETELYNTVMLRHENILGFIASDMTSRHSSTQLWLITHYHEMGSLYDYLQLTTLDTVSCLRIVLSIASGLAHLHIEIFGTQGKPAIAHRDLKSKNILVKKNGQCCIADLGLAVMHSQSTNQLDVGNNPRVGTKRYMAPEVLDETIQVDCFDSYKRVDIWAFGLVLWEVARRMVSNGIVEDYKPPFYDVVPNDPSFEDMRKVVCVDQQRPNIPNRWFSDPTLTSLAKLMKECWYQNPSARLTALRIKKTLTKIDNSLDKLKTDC
# Assay: ALK binding assay (LANTHASCREEN TR-FRET competitive binding, displacement of Kinase Tracer 178)
# Settings: read-out: Binding Assay (IC50 class)
# Method: Example 10 ALK Binding Assays
# Binding assays were conducted using the LANTHASCREEN® technology (ThermoFisher Scientific). LANTHASCREEN® is a competitive binding, displacement assay where the assumed steady state occupancy of the binding site is measured using a time-resolved, fluorescence energy transfer (TR-FRET) readout between a fluorescent tracer and Europium (Eu)-tagged antibody specific for the kinase or expression tag (e.g., GST) of interest. Displacement of the tracer by a compound of the disclosure reduces, and is directly proportional to, the TR-FRET between the tracer and the antibody. Tracer was used at a concentration equal to or near to its Kd for the kinase. The Eu-tagged antibody was typically used in excess to ensure sampling of all competent protein capable of binding the tracer.
# For these assays, a mutant ALK2 was used that was N-terminally tagged with GST (ALK2R206H Carna Bioscience (09-148) or ALK2R206H ThermoFisher (PV6232)); a Eu-tagged anti-GST antibody (ThermoFisher) and Kinase Tracer 178 (ThermoFisher).
# In all cases, the kinase (2-5 nM) was mixed with Eu-tagged antibody (4-10 nM) mix and tracer (50 nM) were incubated with test compound titrations prepared in 100% DMSO (1% DMSO final) for 30 minutes at room temperature. All reagents and compounds were dissolved in Kinase Buffer A (ThermoFisher) to achieve the final concentration. The plates were read on a PerkinElmer EnVision® multilabel plate reader or a BioTek Synergy Neo plate reader, and the assay signal was represented as a ratio of the TR-FRET emission (λex 330 nm, λ^em […] and λ^em 665 nm). This readout was normalized to 0% and 100% inhibited control wells, plotted against inhibitor concentration, and fitted to a 4-parameter log dose response curve.
# The results of this assay are shown in Table 3 in the column labelled “Binding Assay” wherein “A” represents an IC50 of less than or equal to 10 nM; “B” represents an IC50 of greater than 10 nM and less than or equal to 50 nM; and “C” represents an IC50 of greater than 50 nM. Blank values in the table indicate that the particular compound was not tested in this assay.
row,SMILES,IC50
1,CC(C)(O)Cn1cc(-c2cc3c(N4CCN(C(=O)C5CC5)CC4)ccnc3[nH]2)cn1 [Compound 222],≤ 10 nM
2,Cn1cc(-c2cc3c(N4CCN(C(=O)[C@H]5CC[C@@H](O)CC5)CC4)ccnc3[nH]2)cn1 [Compound 223],10 to 50 nM
3,CCc1ccc(-c2cc3c(N4CCN(C(=O)C5CC5)CC4)ccnc3[nH]2)c(Cl)c1 [Compound 226],10 to 50 nM
4,CCc1c(-c2cc3c(N4CCN(C(=O)OC5COC5)CC4)ccnc3[nH]2)cnn1C [Compound 235],≤ 10 nM
5,Cn1cc(-c2cc3c(N4CCN(C(=O)OCC5(C)COC5)CC4)ccnc3[nH]2)cn1 [Compound 236],≤ 10 nM
6,Cn1cc(-c2cc3c(N4CCN(C(=O)OCC5CCCO5)CC4)ccnc3[nH]2)cn1 (centres unmarked) [Compound 238],≤ 10 nM
7,CC(C)c1[nH]ncc1-c1cc2c(N3CCN(C(=O)OC4COC4)CC3)ccnc2[nH]1 [Compound 239],> 50 nM
8,Cn1cc(-c2cc3c(N4CCN(C(=O)OCCC(C)(C)C)CC4)ccnc3[nH]2)cn1 [Compound 240],10 to 50 nM
9,CCOCC(C)OC(=O)N1CCN(c2ccnc3[nH]c(-c4cnn(C)c4)cc23)CC1 (centres unmarked) [Compound 246],≤ 10 nM
10,CC(C)OCCOC(=O)N1CCN(c2ccnc3[nH]c(-c4cnn(C)c4)cc23)CC1 [Compound 247],≤ 10 nM
11,O=C(C1CC1)N1CCN(c2ccnc3[nH]c(-c4ccc(C(F)(F)F)cc4)cc23)CC1 [Compound 253],10 to 50 nM
12,Cc1nc(-c2cc3c(N4CCN(C(=O)OC5CSC5)CC4)ccnc3[nH]2)cs1 [Compound 261],≤ 10 nM
13,Cn1cc(-c2cc3c(N4CCN(C(=O)OCC5CCCCO5)CC4)ccnc3[nH]2)cn1 (centres unmarked) [Compound 306],≤ 10 nM
14,CCOc1ccc(-c2cc3c(N4CCN(C(=O)C5CC5)CC4)ccnc3[nH]2)c(Cl)c1 [Compound 309],> 50 nM
15,Cn1cc(-c2cc3c(N4CCN(C(=O)OCCOC(C)(C)C)CC4)ccnc3[nH]2)cn1 [Compound 314],≤ 10 nM
16,O=C(C1CC1)N1CCN(c2ccnc3[nH]c(-c4ccc(C5CCCCC5)cc4)cc23)CC1 [Compound 319],10 to 50 nM
17,Cc1nc(-c2cc3c(N4CCN(C(=O)O[C@H]5CCC5(F)F)CC4)ccnc3[nH]2)cn1C [Compound 327],≤ 10 nM
18,Cn1cc(-c2cc3c(N4CCN(C(=O)OCCS(C)(=O)=O)CC4)ccnc3[nH]2)cn1 [Compound 338],10 to 50 nM

row,SMILES,IC50
1,CCOC(=O)N1CCN(c2ccnc3[nH]c(-c4cnn(C)c4)c(S(C)(=O)=O)c23)CC1 [Compound 339],10 to 50 nM
2,CC(=O)Nc1ccc(-c2cc3c(N4CCN(C(=O)OC5COC5)CC4)ccnc3[nH]2)nc1 [Compound 353],10 to 50 nM
3,O=C(C1CC1)N1CCN(c2ccnc3[nH]c(-c4ccc(Oc5ccccc5)cc4)cc23)CC1 [Compound 361],10 to 50 nM
4,CC(C)Oc1ccc(-c2cc3c(N4CCN(C(=O)C5CC5)CC4)ccnc3[nH]2)c(Cl)c1 [Compound 364],10 to 50 nM
5,CCS(=O)(=O)CCOC(=O)N1CCN(c2ccnc3[nH]c(-c4cnn(C)c4)cc23)CC1 [Compound 384],10 to 50 nM
6,O=C(C1CC1)N1CCN(c2ccnc3[nH]c(-c4ccc(C(F)(F)F)cc4Cl)cc23)CC1 [Compound 393],> 50 nM
7,Cn1cnc(-c2cc3c(N4CCN(C(=O)O[C@@H]5CC(F)(F)C5(F)F)CC4)ccnc3[nH]2)c1 [Compound 400],≤ 10 nM
8,Cn1cnc(-c2cc3c(N4CCN(C(=O)O[C@H]5CC(F)(F)C5(F)F)CC4)ccnc3[nH]2)c1 [Compound 402],≤ 10 nM
9,Cn1cc(-c2cc3c(N4CCN(C(=O)OCCOC5CCCCC5)CC4)ccnc3[nH]2)cn1 [Compound 405],≤ 10 nM
10,O=C(C1CC1)N1CCN(c2ccnc3[nH]c(-c4ccc(OCc5ccccc5)cc4)cc23)CC1 [Compound 406],10 to 50 nM
11,O=C(OC1COC1)N1CCN(c2ccnc3[nH]c(-c4ncc(C(F)(F)F)s4)cc23)CC1 [Compound 409],≤ 10 nM
12,CCOC(=O)N1CCN(c2ccnc3[nH]c(-c4ccc(C5(OC)CCOCC5)cn4)cc23)CC1 [Compound 430],≤ 10 nM
13,O=C(OC1COC1)N1CCN(c2ccnc3[nH]c(-c4csc(C(=O)N5CCCC5)n4)cc23)CC1 [Compound 448],≤ 10 nM
14,CCN1CCN(c2ccc(-c3cc4c(N5CCN(C(=O)C6CC6)CC5)ccnc4[nH]3)c(OC)c2)CC1 [Compound 454],10 to 50 nM
15,COC1(c2ccc(-c3cc4c(N5CCN(C(=O)OC6COC6)CC5)ccnc4[nH]3)nc2)CCOCC1 [Compound 457],≤ 10 nM
16,CC(C)(C)OC(=O)NC1(c2ccc(-c3cc4c(N5CCN(C(=O)C6CC6)CC5)ccnc4[nH]3)cc2)CC1 [Compound 463],≤ 10 nM
17,N#Cc1cc(C2(O)CCOCC2)ccc1-c1cc2c(N3CCN(C(=O)OC4COC4)CC3)ccnc2[nH]1 [Compound 465],≤ 10 nM
18,CCN1CCN(c2ccc(-c3cc4c(N5CCN(C(=O)C6CC6)CC5)ccnc4[nH]3)c3ncccc23)CC1 [Compound 471],≤ 10 nM

# The next lines start with the values.
row,IC50,SMILES
1,≤ 10 nM,Cn1cc(-c2cc3c(N4CCN(C(=O)OC5COC5)CC4)ccnc3[nH]2)c(C#N)n1 [Compound 209]
2,> 50 nM,Cn1cc(C#N)c(-c2cc3c(N4CCN(C(=O)OC5COC5)CC4)ccnc3[nH]2)n1 [Compound 211]
3,≤ 10 nM,Cc1nc(-c2[nH]c3nccc(N4CCN(C(=O)OC5COC5)CC4)c3c2C#N)co1 [Compound 216]
4,≤ 10 nM,Cc1ncc(-c2[nH]c3nccc(N4CCN(C(=O)OC5COC5)CC4)c3c2C#N)o1 [Compound 217]
5,≤ 10 nM,N#Cc1ncc(-c2cc3c(N4CCN(C(=O)OC5COC5)CC4)ccnc3[nH]2)s1 [Compound 229]
6,≤ 10 nM,N#Cc1csc(-c2cc3c(N4CCN(C(=O)OC5COC5)CC4)ccnc3[nH]2)n1 [Compound 230]
7,≤ 10 nM,CCc1c(-c2cnn(C)c2)[nH]c2nccc(N3CCN(C(=O)OC4COC4)CC3)c12 [Compound 237]
8,≤ 10 nM,Cn1cc(-c2[nH]c3nccc(N4CCN(C(=O)OC5COC5)CC4)c3c2C2CC2)cn1 [Compound 293]
9,≤ 10 nM,Cc1nc(-c2[nH]c3nccc(N4CCN(C(=O)OC5COC5)CC4)c3c2C)sc1C [Compound 318]
10,≤ 10 nM,COc1cnc(-c2cc3c(N4CCN(C(=O)OC5COC5)CC4)ccnc3[nH]2)c(C#N)c1 [Compound 346]
11,≤ 10 nM,Cc1nc(-c2[nH]c3nccc(N4CCN(C(=O)OC5COC5)CC4)c3c2C#N)sc1C [Compound 360]
12,10 to 50 nM,CC(C)(C)c1cnc(-c2cc3c(N4CCN(C(=O)OC5COC5)CC4)ccnc3[nH]2)s1 [Compound 373]
13,≤ 10 nM,CC(C)(O)c1csc(-c2cc3c(N4CCN(C(=O)OC5COC5)CC4)ccnc3[nH]2)n1 [Compound 379]
14,≤ 10 nM,Cc1nc(-c2[nH]c3nccc(N4CCN(C(=O)OC5COC5)CC4)c3c2Cl)sc1C [Compound 391]
15,10 to 50 nM,CCC(=O)c1c(-c2cn(C)c(C)n2)[nH]c2nccc(N3CCN(C(=O)OC4COC4)CC3)c12 [Compound 404]
16,10 to 50 nM,"O=C(OC1COC1)N1CCN(c2ccnc3[nH]c(-c4nc(C(F)(F)F)cs4)cc23)CC1 [Compound 410, oxetan-3-yl 4-(2-(4-(trifluoromethyl)thiazol-2-yl)-1H-pyrrolo[2,3-b]pyridin-4-yl)piperazine-1-carboxylate]"
17,≤ 10 nM,O=C(OC1COC1)N1CCN(c2ccnc3[nH]c(-c4nc5c(s4)COCC5)c(Cl)c23)CC1 [Compound 443]
